Data: patent US10168342B2, “Lipid probes and uses thereof” (THE SCRIPPS RESEARCH INSTITUTE, priority 2015, dated 2019)
Read-outs that look alike come from different tables or passages of the source.

Assays:
[1] = target: AEA-DA lipid probe targets in Neuro2a cells (Mus musculus, UniProt O88545)
[2] = target: AEA-DA lipid probe targets in Neuro2a cells (Mus musculus, UniProt Q91VM5); conditions: protein Rbmxl1, Neuro2a cells
[3] = target: T1, AEA-DA lipid probe targets in Neuro2a cells (Mus musculus, UniProt Q8C0K5)
T1 sequence (Q8C0K5 1-332): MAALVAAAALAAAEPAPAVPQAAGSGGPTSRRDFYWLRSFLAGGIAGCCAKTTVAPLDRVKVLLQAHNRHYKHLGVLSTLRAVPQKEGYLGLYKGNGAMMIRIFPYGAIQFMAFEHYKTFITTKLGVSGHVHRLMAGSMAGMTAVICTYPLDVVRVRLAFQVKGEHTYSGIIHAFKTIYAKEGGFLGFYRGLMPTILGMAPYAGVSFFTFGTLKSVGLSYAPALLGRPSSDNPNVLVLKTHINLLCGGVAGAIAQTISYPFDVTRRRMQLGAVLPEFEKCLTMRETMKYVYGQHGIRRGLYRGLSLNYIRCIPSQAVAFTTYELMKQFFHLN

[4] = target: AEA-DA lipid probe targets in Neuro2a cells (Mus musculus, UniProt Q9JKC6)
[5] = target: AEA-DA lipid probe targets in Neuro2a cells (Mus musculus, UniProt Q8BVU5); conditions: protein Nudt9, Neuro2a cells
[6] = target: T2, AEA-DA lipid probe targets in Neuro2a cells (Mus musculus, UniProt Q8BVE8)
T2 sequence (Q8BVE8 1-1365): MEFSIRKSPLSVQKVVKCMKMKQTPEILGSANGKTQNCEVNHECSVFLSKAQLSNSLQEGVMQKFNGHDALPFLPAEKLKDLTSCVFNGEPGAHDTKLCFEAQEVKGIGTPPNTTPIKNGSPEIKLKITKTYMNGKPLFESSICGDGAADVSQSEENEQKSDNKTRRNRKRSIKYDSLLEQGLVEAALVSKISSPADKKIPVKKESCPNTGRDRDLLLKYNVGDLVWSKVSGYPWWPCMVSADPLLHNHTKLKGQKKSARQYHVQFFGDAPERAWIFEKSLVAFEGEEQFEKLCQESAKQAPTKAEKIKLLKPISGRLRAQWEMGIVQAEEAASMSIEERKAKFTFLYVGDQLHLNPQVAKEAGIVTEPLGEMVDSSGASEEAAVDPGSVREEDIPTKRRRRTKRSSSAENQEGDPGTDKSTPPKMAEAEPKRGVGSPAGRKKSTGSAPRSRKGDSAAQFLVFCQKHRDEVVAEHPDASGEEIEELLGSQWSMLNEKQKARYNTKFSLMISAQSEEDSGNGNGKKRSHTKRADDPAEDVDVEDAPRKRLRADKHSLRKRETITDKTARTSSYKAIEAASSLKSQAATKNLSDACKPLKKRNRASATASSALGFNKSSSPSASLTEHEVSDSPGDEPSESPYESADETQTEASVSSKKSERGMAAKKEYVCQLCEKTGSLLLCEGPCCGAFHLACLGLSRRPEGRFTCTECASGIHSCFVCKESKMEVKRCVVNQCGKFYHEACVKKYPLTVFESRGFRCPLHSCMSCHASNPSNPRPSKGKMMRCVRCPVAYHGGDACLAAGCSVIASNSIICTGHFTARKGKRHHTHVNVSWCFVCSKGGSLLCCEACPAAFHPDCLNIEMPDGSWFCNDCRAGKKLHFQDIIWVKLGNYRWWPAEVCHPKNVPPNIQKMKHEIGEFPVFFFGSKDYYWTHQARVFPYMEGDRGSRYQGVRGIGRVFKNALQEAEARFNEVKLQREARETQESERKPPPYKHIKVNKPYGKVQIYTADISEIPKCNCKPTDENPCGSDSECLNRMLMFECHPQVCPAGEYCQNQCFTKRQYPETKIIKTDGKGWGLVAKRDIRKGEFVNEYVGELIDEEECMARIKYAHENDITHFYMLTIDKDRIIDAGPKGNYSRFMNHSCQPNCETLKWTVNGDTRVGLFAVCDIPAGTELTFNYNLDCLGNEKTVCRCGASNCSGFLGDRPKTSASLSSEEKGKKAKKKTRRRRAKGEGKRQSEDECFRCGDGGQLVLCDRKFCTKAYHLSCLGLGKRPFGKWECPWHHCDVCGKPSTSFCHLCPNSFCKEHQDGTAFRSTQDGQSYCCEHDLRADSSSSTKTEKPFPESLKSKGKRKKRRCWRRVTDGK

[7] = target: T3, AEA-DA lipid probe targets in Neuro2a cells (Mus musculus, UniProt P04223)
T3 sequence (P04223 22-369): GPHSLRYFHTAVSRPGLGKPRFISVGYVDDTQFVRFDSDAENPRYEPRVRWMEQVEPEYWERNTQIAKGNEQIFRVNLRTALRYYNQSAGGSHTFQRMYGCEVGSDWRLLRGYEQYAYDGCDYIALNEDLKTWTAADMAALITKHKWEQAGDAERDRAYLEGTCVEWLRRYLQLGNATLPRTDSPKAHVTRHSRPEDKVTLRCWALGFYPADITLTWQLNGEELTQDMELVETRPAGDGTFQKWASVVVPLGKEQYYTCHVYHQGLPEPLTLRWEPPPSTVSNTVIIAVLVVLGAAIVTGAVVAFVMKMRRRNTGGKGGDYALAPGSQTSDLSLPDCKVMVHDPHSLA

[8] = target: AEA-DA lipid probe targets in Neuro2a cells (Mus musculus, UniProt Q78IK4); conditions: protein Apool; Neuro2a cells; competitor 25 μM
[9] = target: AEA-DA lipid probe targets in Neuro2a cells (Mus musculus, UniProt Q99KI3); conditions: competitor 25 μM
[10] = target: AEA-DA lipid probe targets in Neuro2a cells (Mus musculus, UniProt Q8VCL2); conditions: competitor 25 μM
[11] = target: AEA-DA lipid probe targets in Neuro2a cells (Mus musculus, UniProt Q3UV70); conditions: protein Pdp1; Neuro2a cells; competitor 25 μM
AEA-DA lipid probe targets in Neuro2a cells (Mus musculus, UniProt Q3UV70), sequence (Q3UV70 72-538): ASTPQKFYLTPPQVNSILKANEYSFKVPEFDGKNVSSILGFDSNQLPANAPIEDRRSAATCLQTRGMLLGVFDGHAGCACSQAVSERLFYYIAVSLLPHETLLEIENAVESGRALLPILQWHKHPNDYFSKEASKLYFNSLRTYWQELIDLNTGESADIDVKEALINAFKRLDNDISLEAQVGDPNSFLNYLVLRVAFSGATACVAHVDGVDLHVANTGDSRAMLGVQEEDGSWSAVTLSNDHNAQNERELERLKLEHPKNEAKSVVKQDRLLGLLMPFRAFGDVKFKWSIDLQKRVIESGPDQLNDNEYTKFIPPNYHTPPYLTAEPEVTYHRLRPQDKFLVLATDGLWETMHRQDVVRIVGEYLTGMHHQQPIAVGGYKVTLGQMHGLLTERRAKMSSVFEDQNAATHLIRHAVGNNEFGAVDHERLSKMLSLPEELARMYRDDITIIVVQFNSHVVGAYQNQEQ

AEA-DA lipid probe targets in Neuro2a cells (Mus musculus, UniProt Q91VM5), sequence (Q91VM5 whole entry): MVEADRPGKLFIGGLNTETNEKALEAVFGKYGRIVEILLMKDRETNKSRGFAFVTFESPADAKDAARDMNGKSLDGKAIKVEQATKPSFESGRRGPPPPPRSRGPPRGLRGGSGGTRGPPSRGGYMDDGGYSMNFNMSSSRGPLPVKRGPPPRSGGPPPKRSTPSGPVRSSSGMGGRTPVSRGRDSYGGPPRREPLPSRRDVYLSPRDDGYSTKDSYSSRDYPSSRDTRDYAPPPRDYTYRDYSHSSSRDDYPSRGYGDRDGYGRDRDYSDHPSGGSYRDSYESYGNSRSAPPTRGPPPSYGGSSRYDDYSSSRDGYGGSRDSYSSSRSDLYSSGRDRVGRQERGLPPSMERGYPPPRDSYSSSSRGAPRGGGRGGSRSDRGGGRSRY
AEA-DA lipid probe targets in Neuro2a cells (Mus musculus, UniProt Q8VCL2), sequence (Q8VCL2 42-255): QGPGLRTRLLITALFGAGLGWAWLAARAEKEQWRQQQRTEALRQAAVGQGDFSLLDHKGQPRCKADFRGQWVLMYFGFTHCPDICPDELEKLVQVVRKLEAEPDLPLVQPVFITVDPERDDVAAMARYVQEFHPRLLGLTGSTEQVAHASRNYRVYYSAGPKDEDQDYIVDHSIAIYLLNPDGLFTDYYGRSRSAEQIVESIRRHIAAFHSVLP
AEA-DA lipid probe targets in Neuro2a cells (Mus musculus, UniProt Q8BVU5), sequence (Q8BVU5 47-350): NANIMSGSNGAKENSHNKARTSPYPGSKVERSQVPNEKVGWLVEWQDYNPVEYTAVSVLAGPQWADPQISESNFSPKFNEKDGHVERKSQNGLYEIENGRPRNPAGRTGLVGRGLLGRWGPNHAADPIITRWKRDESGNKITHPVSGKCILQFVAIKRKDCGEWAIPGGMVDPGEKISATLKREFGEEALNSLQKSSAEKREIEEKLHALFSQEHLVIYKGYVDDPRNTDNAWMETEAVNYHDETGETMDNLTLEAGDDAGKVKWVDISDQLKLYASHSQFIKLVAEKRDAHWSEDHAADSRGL
AEA-DA lipid probe targets in Neuro2a cells (Mus musculus, UniProt O88545), sequence (O88545 whole entry): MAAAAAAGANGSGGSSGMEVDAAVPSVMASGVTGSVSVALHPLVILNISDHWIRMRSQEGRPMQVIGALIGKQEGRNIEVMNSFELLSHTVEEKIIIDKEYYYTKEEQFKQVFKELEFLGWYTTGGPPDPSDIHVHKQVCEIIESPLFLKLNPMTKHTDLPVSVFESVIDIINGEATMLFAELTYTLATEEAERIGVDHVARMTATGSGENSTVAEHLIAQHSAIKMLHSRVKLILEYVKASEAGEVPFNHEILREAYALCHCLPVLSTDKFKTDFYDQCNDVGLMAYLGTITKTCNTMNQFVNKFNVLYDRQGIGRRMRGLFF
AEA-DA lipid probe targets in Neuro2a cells (Mus musculus, UniProt Q99KI3), sequence (Q99KI3 whole entry): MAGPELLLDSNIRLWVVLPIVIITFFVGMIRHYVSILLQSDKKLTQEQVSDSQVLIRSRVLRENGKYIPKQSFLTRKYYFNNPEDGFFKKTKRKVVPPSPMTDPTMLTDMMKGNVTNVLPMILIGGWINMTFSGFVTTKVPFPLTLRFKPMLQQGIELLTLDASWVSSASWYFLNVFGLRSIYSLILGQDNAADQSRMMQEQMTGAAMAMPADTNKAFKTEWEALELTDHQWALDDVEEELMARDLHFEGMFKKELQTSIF
AEA-DA lipid probe targets in Neuro2a cells (Mus musculus, UniProt Q78IK4), sequence (Q78IK4 28-265): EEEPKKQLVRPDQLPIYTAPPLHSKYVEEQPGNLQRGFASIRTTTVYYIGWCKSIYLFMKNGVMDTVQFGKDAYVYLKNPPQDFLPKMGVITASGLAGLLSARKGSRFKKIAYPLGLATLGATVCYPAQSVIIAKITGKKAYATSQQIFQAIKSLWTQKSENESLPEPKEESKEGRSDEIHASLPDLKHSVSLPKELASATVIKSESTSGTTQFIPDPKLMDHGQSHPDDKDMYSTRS
AEA-DA lipid probe targets in Neuro2a cells (Mus musculus, UniProt Q9JKC6), sequence (Q9JKC6 whole entry): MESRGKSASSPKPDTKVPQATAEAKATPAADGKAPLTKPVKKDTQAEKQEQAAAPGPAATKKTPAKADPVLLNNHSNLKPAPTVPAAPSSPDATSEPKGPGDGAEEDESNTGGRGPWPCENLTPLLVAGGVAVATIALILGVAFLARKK

CCCCC/C=C\C/C=C\C/C=C\C/C=C\CCCC(=O)NCCO [AEA, anandamide, reference compound]
SILAC ratio Cops6 ([1]; competitor 200 μM): 1.4 | SILAC ratio (AEA-DA competition) ([2]; competitor 200 μM): 1.0 | SILAC ratio Slc25a16 ([3]; competitor 200 μM): 1.5 | SILAC ratio Cend1 ([4]; competitor 200 μM): 1.7 | SILAC ratio (AEA-DA competition) ([5]; competitor 200 μM): 1.0 | SILAC ratio Whsc1 ([6]; competitor 200 μM): 1.0 | SILAC ratio H2-K1 ([7]; competitor 200 μM): 1.2

C=CCN(C)CCCCCCOc1ccc(C(=O)c2ccc(Br)cc2)c(F)c1 [Ro 48-8071, reference compound]
SILAC ratio (AEA-DA competition) [8]: 0.9 | SILAC ratio Emc3 [9]: 1.5 | SILAC ratio Sco2 [10]: 1.0

CN1CCN(C(=O)c2c(-c3ccccc3)c3cc([N+](=O)[O-])ccc3n2C)CC1 [KML110, (1-Methyl-5-nitro-3-phenyl-1H-indol-2-yl)(4-methylpiperazin-1-yl)methanone]
SILAC ratio Cend1 ([4]; competitor 25 μM): 0.9 | SILAC ratio (AEA-DA competition) [8]: 1.0 | SILAC ratio (AEA-DA competition) ([5]; competitor 25 μM): 1.9 | SILAC ratio Emc3 [9]: 1.0 | SILAC ratio Sco2 [10]: 1.5

O=C(/C=C/c1cccnc1)NCCCCC1CCN(C(=O)c2ccccc2)CC1 [FK-866, reference compound]
SILAC ratio (AEA-DA competition) [11]: 0.9

CN1CCN(C(=O)c2[nH]c3ccc([N+](=O)[O-])cc3c2-c2ccccc2)CC1 [MJN228, (4-Methylpiperazin-1-yl)(5-nitro-3-phenyl-1H-indol-2-yl)methanone]
SILAC ratio Cops6 ([1]; competitor 100 μM): 1.2 | SILAC ratio (AEA-DA competition) ([2]; competitor 10 μM): 1.1 | SILAC ratio (AEA-DA competition) ([2]; competitor 25 μM): 1.2 | SILAC ratio (AEA-DA competition) ([2]; competitor 100 μM): 1.3 | SILAC ratio Slc25a16 ([3]; competitor 10 μM): 1.2 | SILAC ratio Slc25a16 ([3]; competitor 25 μM): 1.1 | SILAC ratio Whsc1 ([6]; competitor 10 μM): 1.4 | SILAC ratio Whsc1 ([6]; competitor 25 μM): 1.2 | SILAC ratio Whsc1 ([6]; competitor 100 μM): 1.6 | SILAC ratio H2-K1 ([7]; competitor 10 μM): 1.0 | SILAC ratio H2-K1 ([7]; competitor 50 μM): 0.9 | SILAC ratio H2-K1 ([7]; competitor 100 μM): 1.0 | SILAC ratio (AEA-DA competition) [11]: 1.4
